Structures are written as SMILES.

The conditions of data set [1]: human subjects; cited from earlier work.
The next data set concerns LNCaP cells. Put plainly: Co-transfection luciferase assay with 10 nM R1881 (Example 2). In kind it is cell-based, human. The settings on record: charcoal-stripped serum.

Description for LNCaP cells: We performed transient transfections 24 hours later using Tfx-50 (Promega) with a lipid:DNA ratio of 4:1. Each transfection mixture contained 0.5 μg of the effector and reporter plasmids or reporter plasmid alone with pGL3B carrier DNA. Methylenetrienolone (R1881; NEN Life Science Products, Boston, Mass.) was added to the medium at a concentration of 10 nM/well one hour following transfection, and the cells were incubated for 48 h. The cells were harvested and lysed using the passive lysis buffer provided in the assay kit for measuring FL activities (Dual-Reporter Luciferase Assay System, Promega).

Consider `Nc1nc(=O)c2ncn(CCC(CO)C[18F])c2[nH]1` (stereo not drawn) [[^18F]FHBG, 9-(4-[18F]-fluoro-3-hydroxymethylbutyl)guanine], for which the blood-brain-barrier penetration entry in data set [1] is listed as “does not significantly cross the blood-brain-barrier”.

With `O=c1[nH]c(=O)n([C@@H]2O[C@H](CO)[C@@H](O)[C@@H]2F)cc1[125I]` [[^124I]FIAU, 2′-fluoro-2′-deoxy-1-β-D-arabinofuranosyl-5-iodo-uracil], the blood-brain-barrier penetration result in data set [1] is “cannot penetrate the blood brain barrier”.

Take `CC(O)(CS(=O)(=O)c1ccc(F)cc1)C(=O)Nc1ccc(C#N)c(C(F)(F)F)c1` (stereo not drawn) [casodex, reference compound]: the “basal activity of the PSA enhancer constructs” value with LNCaP cells is given as “further reduced”.

Values taken from US7527942B2, “Transcription amplification system for molecular imaging” (The Regents of the University of California, priority 2002, dated 2009).
